Where two headings read alike, the source gives them in different places.
Columns and labels:
[1] = Pharmacokinetics in plasma after single bolus intravenous injection; details: dog
[2] = Pharmacokinetics in plasma after 72 hours intravenous infusion; details: beagle, dog
Protocol: Plasma levels of E5564 were determined during and after 72 hours of intravenous infusion of 0.03 mg/kg/hr E5564 (◯, ●), 0.1 mg/kg/hr E5564 (□, ▪), and 1 mg/kg/hr E5564 (Δ, ▴) into female (closed symbols) or male (open symbols) beagle dogs. At the indicated times, blood was drawn and analyzed for E5564 concentration by extraction and analysis by HPLC. Each value represents the mean±S.E.M. of three animals.

[3] = tested on: LPS endotoxin (Escherichia coli 0111:B4)-induced plasma TNF-α; details: for TNF-α at 1 hr: plasma 1 hr after LPS; for TNF-α at 2 hr: plasma 2 hr after LPS
Protocol: LPS endotoxin (300 ng/kg) was injected intravenously into untreated dogs (◯) or simultaneously with 0.1 mg/kg E5564 (Δ) one hour after E5564 administration (□) or three hours after E5564 administration (●). Blood was drawn and analyzed for TNF-α concentration by bioassay, as is described in the Appendix, below. Each value represents the mean±S.E.M. of four animals.
In both assays, activity of the antagonist is quantitated by analysis of the cytokines induced by LPS administration.
Escherichia coli LPS (Serotype 0111:B4; phenol extracted, Cat. # L-2630) was purchased from Sigma Chem. Co. Ltd., St. Louis, Mo., USA. Lyophylized E5564 was solubilized in 5 ml of sterile water (Otsuka Pharm. Co. Ltd., Tokyo, Japan). LPS was weighed to an accuracy of 1/10 mg and solubilized in 5% glucose (Otsuka Pharm. Co. Ltd., Tokyo, Japan). The LPS solution was sonicated with a bath-type sonicator for 15 minutes after which aliquots were immediately prepared and stored at −20° C. Prior to use, the solution was sonicated for one or two minutes, and then dilutions were prepared in 5% glucose.
Nine month-old beagles were obtained from Kawashima-shoji Co. Ltd., Gifu, Japan) and housed in stainless steel wire cages (W 800 mm×D 680 mm×H 680 mm; one dog per cage) in a room with a constant temperature of 20-24° C., humidity of 45-65%, and 12 hour light-dark cycle. The animals were provided with pellet food (DS, Oriental Yeast Co., Tokyo, Japan) and water ad libitum. LPS endotoxin (300 ng/0.1 ml/kg) was injected into the vein of the right foreleg at a rate of 1-2 ml/min, and E5564 was injected into the vein of the left foreleg at a rate of 10-20 ml/min.
Immediately before or 1, 2, or 4 hours after intravenous injection of LPS and E5564, 1.5 ml of blood was drawn from the left cephalic vein. One milliliter was transferred into a tube containing 10 U of heparin (Mochida Pharm. Co. Ltd., Tokyo, Japan), centrifuged (2000×g, 5 minutes, 4° C.), and the plasma was used for bioassays for TNF-α and IL-6.
Aliquots of the plasma were tested for TNF in a bioassay based on the TNF-dependent cell death of L-P3 cells in the presence of actinomycin D. The L-P3 cell line is more sensitive to TNF-induced cell death than the L-929 cell line that is more commonly used.

[4] = 0.1 mg/kg E5564 iv one hour before LPS 300 ng/kg iv
[5] = 0.1 mg/kg E5564 iv three hours before LPS 300 ng/kg iv

`CCCCCC/C=C\CCCCCCCCCC(=O)N[C@H]1[C@H](OC[C@H]2O[C@H](OP(=O)(O)O)[C@H](NC(=O)CC(=O)CCCCCCCCCCC)[C@@H](OCCCCCCCCCC)[C@@H]2O)O[C@H](COC)[C@@H](OP(=O)(O)O)[C@@H]1OCC[C@@H](CCCCCCC)OC` [E5564, α-D-Glucopyranose, 3-O-decyl-2-deoxy-6-O-[2-deoxy-3-O-[(3R)-3-methoxydecyl)-6-O-methyl-2-[[(11Z)-1-oxo-11-octadecenyl)amino]-4-O-phosphono-β-D-glucopyranosyl]-2-[(1,3-dioxotetradecyl)amino]-, 1-(dihydrogen phosphate)] gave an AUC ([1]; 0.1 mg/kg) of 71.8 µg·h/mL, a half-life ([1]; 0.1 mg/kg) of 2500 ± 162 min and an AUC ([1]; 0.3 mg/kg) of 271 ± 28.3 µg·h/mL. The half-life ([1]; 0.3 mg/kg) was 3020 ± 132 min, the AUC ([1]; 1 mg/kg) was 744 µg·h/mL and the half-life ([1]; 1 mg/kg) was 2780 ± 162 min. For the same molecule, the AUC(0-t) ([2]; female, 0.1 mg/kg) was 790 ± 51 µg·h/mL, the concentration at 72 h ([2]; female, 0.1 mg/kg) was 10400 ± 930 ng/mL and the half-life ([2]; female, 0.1 mg/kg) was 2450 ± 570 min. The AUC(0-t) ([2]; female, 0.3 mg/kg) was 2620 ± 737 µg·h/mL, the concentration at 72 h ([2]; female, 0.3 mg/kg) was 32400 ± 5720 ng/mL and the half-life ([2]; female, 0.3 mg/kg) was 2280 ± 696 min. It also gave an AUC(0-t) ([2]; female, 1 mg/kg) of 29600 ± 1510 µg·h/mL, a concentration at 72 h ([2]; female, 1 mg/kg) of 394000 ± 14200 ng/mL and a half-life ([2]; female, 1 mg/kg) of 1920 ± 168 min. For the same molecule, the AUC(0-t) ([2]; male, 0.1 mg/kg) was 1070 ± 139 µg·h/mL, the concentration at 72 h ([2]; male, 0.1 mg/kg) was 13100 ± 1220 ng/mL and the half-life ([2]; male, 0.1 mg/kg) was 2300 ± 270 min. The AUC(0-t) ([2]; male, 0.3 mg/kg) was 3310 ± 485 µg·h/mL, the concentration at 72 h ([2]; male, 0.3 mg/kg) was 41300 ± 7180 ng/mL and the half-life ([2]; male, 0.3 mg/kg) was 2390 ± 672 min. The AUC(0-t) ([2]; male, 1 mg/kg) was 27100 ± 5740 µg·h/mL, the concentration at 72 h ([2]; male, 1 mg/kg) was 366000 ± 69300 ng/mL and the half-life ([2]; male, 1 mg/kg) was 2110 ± 522 min. For the same molecule, the “Activity of the endotoxin antagonist, % of its original activity” value ([3]; 0.1 mg/kg E5564, LPS administered three hours after E5564 dose) was “about 48%”, the “TNF-α at 1 hr” value [3, 4] was 0 units/ml and the “TNF-α at 2 hr” value [3, 4] was 0 units/ml. For the same molecule, the “TNF-α at 1 hr” value ([3]; 0.1 mg/kg E5564 iv simultaneously with LPS 300 ng/kg iv, n=4 dogs) was 0 units/ml, the “TNF-α at 2 hr” value ([3]; 0.1 mg/kg E5564 iv simultaneously with LPS 300 ng/kg iv) was 0 units/ml and the “TNF-α at 1 hr” value [3, 5] was 1353 ± 340 units/ml. The “TNF-α at 2 hr” value [3, 5] was 190 ± 113 units/ml.
